{
  "source": "patent US20220233535A1",
  "about": "“USE OF INHIBITORS OF YAP/TAZ FOR THE TREATMENT OF CANCER” (Georgetown University, priority 2019, published 2022)",
  "type_in_all_cases": "cell-based",
  "key": {"[1]": {"tested_on": "pERK (ERK phosphorylation)", "assay": "Western blot analysis of pERK levels in SN12C cells treated with inhibitors/compounds", "conditions": "for pERK levels in Ctrl cells: CaCl2 2 hours 0, 0.5, 1, 2 mM (FIG. 7K), bicarbonate (FIG. 8K); for pERK levels in shY/T cells: western blot; for pERK levels in shY/T cells with increasing concentrations: HCl 1 h 0-12 mM, BAPTA 3 h 0-13 μM, Baf 3 h 0-0.5 μM", "protocol": "(§1) Cells were grown for 24 hours in serum-free medium in the presence of various inhibitors unless indicated otherwise. After a brief wash with cold PBS, cells were lysed in urea buffer (9.5 M urea, 2% 3-[(3-cholamidopropyl)dimethylammonio]-1-propanesulfonate (CHAPS)), adjusted to similar concentrations, mixed with 6× sodium dodecyl sulfate (SDS) loading dye, heated at 95° C. for 10 minutes, and subjected to SDS-polyacrylamide gel electrophoresis and semi-dry transferring to polyvinylidene fluoride (PVDF) membranes. For analysis of oxidative phosphorylation (OXPHOS) complexes, 2×10^7 Ctrl and shY/T cells were harvested and either saved as whole cell extract (WCE) or processed using the Mitochondria Isolation Kit for cultured cells according to the manufacturer's instructions (Thermo Fisher Scientific). The WCE and mitochondrial-enriched fraction were resuspended in radioimmunoprecipitation assay (RIPA) buffer for western blot analysis."}, "[2]": {"tested_on": "Ctrl and shY/T SN12C cells", "assay": "Nutrient deprivation experiments, percent change in RFP fluorescence (proliferation and survival)", "conditions": "3 days; for proliferation under nutrient-replete conditions: Ctrl and shY/T SN12C; for proliferation under nutrient-replete conditions / Glc- and Gln-starvation-induced cell death in shY/T cells: GSH 0.3 mM or EGF 1 μg/ml; for Glc- and Gln-starvation-induced cell death in shY/T cells: shY/T SN12C", "protocol": "For SN12C cells, all medium in nutrient deprivation studies contained a base of RPMI salt mix (0.42 mM Ca(NO3)2.4H2O, 0.41 mM MgSO4, 5.4 mM KCl, 23.8 mM NaHCO3, 102.7 mM NaCl, and 5.6 mM Na2HPO4), RPMI 1640 vitamins solution (Millipore Sigma, St. Louis, Mo.), MEM amino acids solution (ThermoFisher Scientific), and MEM non-essential amino acids solution (Sigma). Nutrient replete conditions received 11.1 mM glucose (Millipore Sigma) and 2 mM glutamine (Lonza, Benicia, Calif.) and deprivation conditions lacked or contain reduced amount of their respective nutrient as indicated. For SC4 cells, all medium in nutrient deprivation studies contained a base of DMEM without glucose or glutamine (#D5030, Millipore Sigma) and supplemented with sodium pyruvate and sodium bicarbonate to levels in standard DMEM formulation. For conditions with glucose or glutamine, 5.6 mM glucose (Millipore Sigma) and/or 4 mM glutamine (Lonza) were added. Reduced cellular glutathione (GSH) (Alfa Aesar, Haverhill, Mass.) and epidermal growth factor (EGF) (Millipore Sigma) were used at final concentrations of 0.3 mM and 1 μg/ml, respectively. Percent survival was calculated based on the sequential measurements of red fluorescent protein (RFP) fluorescence (filter range 553-574 nm) at the initiation and end of treatment using the Synergy™ Hybrid Multi-Mode Microplate Reader (BioTek, Winooski, Vt.). A one-way ANOVA with Sidak's multiple comparison test was used to calculate significance for all nutrient deprivation experiments."}, "[3]": {"tested_on": "pAKT (AKT phosphorylation)", "assay": "Western blot analysis of pAKT levels in SN12C cells", "conditions": "for pAKT levels in Ctrl cells: Ctrl SN12C cells treated overnight, western blot", "protocol": "as §1"}, "[4]": {"tested_on": "shY/T SN12C cells", "assay": "Intracellular calcium assay", "conditions": "shY/T SN12C grown overnight with 0 or 0.3 μM bafilomycin", "protocol": "Cells were grown for indicated time in serum-free medium, washed with ice-cold PBS, collected in 100 mM Tris pH 7.5 buffer using cell scraper, and processed using the Calcium Assay Kit (Cayman Chemicals) according to the manufacturer's instructions. The calcium concentrations were normalized to the protein concentrations determined using Bradford Protein Assay (Bio-Rad)."}, "[5]": {"tested_on": "shY/T SN12C cells", "assay": "Media pH measurements", "conditions": "shY/T SN12C grown overnight with 0 or 0.3 μM bafilomycin", "protocol": "Cells were plated at the same time with optimized seeding densities that ensure all cell lines to reach 80% confluence at the time of measurement. Medium supernatant was collected and measured using the Thermo Scientific™ Orion™ 3-Star Benchtop pH Meter after calibration."}, "[6]": {"tested_on": "Ctrl and shY/T SN12C cells", "assay": "Lysosome inhibitor treatment of Ctrl and shY/T cells under different nutrient conditions", "conditions": "bafilomycin 24 hours, chloroquine 3 days, −Glc or −Gln medium", "procedure": "Nutrient replete conditions received 11.1 mM glucose (Millipore Sigma) and 2 mM glutamine (Lonza, Benicia, Calif.) and deprivation conditions lacked or contain reduced amount of their respective nutrient as indicated. For SC4 cells, all medium in nutrient deprivation studies contained a base of DMEM without glucose or glutamine (#D5030, Millipore Sigma) and supplemented with sodium pyruvate and sodium bicarbonate to levels in standard DMEM formulation. For conditions with glucose or glutamine, 5.6 mM glucose (Millipore Sigma) and/or 4 mM glutamine (Lonza) were added. […] Percent survival was calculated based on the sequential measurements of red fluorescent protein (RFP) fluorescence (filter range 553-574 nm) at the initiation and end of treatment using the Synergy™ Hybrid Multi-Mode Microplate Reader (BioTek, Winooski, Vt.). […]\nCells were plated at optimized seeding densities to reach 60-70% confluence on the next day, at which point the media were replaced with serum-free medium containing Dox and serially diluted compounds or vehicle control. […] After incubation for indicated time, cell viability was measured using the CellTiter-Glo Luminescence Cell Viability assay (Promega) or ATPlite Luminescence Assay (Perkin Elmer) for FIG. 1B. Percent viability for each cell lines was calculated based on vehicle control."}, "[7]": {"conditions": "shY/T SN12C cells treated overnight"}},
  "note": "Where a name gives a salt, the structure may show the parent alone.",
  "data": [
    {"compound": "[Ca+2].[Cl-].[Cl-]", "note": "[calcium, CaCl2]", "values": [
      {"measurement": "pERK levels in Ctrl cells", "setting": "[1]; Ctrl cells", "result": "increased pERK levels"}
    ]},
    {"compound": "N[C@@H](CCC(=O)N[C@@H](CS)C(=O)NCC(=O)O)C(=O)O", "note": "[GSH, glutathione]", "values": [
      {"measurement": "Glc- and Gln-starvation-induced cell death in Ctrl cells", "setting": "[2]; Ctrl SN12C, −Glc or −Gln, GSH 0.3 mM", "result": "had no effect"},
      {"measurement": "proliferation under nutrient-replete conditions", "setting": "[2]", "result": "did not affect the proliferation"},
      {"measurement": "Glc- and Gln-starvation-induced cell death in shY/T cells", "setting": "[2]; −Glc or −Gln", "result": "significantly inhibited"}
    ]},
    {"compound": "Nc1ncnc2c1ncn2[C@@H]1O[C@@H]2COP(O)(=S)O[C@H]2[C@H]1O", "note": "(some centres unmarked) [Rp-cAMP]", "values": [
      {"measurement": "pAKT levels in Ctrl cells", "setting": "[3]", "result": "without affecting pAKT"},
      {"measurement": "pERK levels in shY/T cells", "setting": "[1]; [7]", "result": "specifically inhibited ERK phosphorylation"}
    ]},
    {"compound": "O=C(O)CN(CC(=O)O)c1ccccc1OCCOc1ccccc1N(CC(=O)O)CC(=O)O", "note": "[BAPTA]", "values": [
      {"measurement": "pERK levels in shY/T cells with increasing concentrations", "setting": "[1]; shY/T SN12C", "result": "reduced pERK levels in a dose-dependent manner"}
    ]},
    {"compound": "CNc1ncc2cc(-c3cc(NC(=O)NCCC(C)(C)C)c(F)cc3C)c(C)nc2n1", "note": "[LY3009120]", "values": [
      {"measurement": "pAKT levels in Ctrl cells", "setting": "[3]", "result": "did not reduce pAKT levels"},
      {"measurement": "pERK levels in shY/T cells", "setting": "[1]; [7]", "result": "inhibited pERK levels"}
    ]},
    {"compound": "CO/C1=C\\C(C)=C\\[C@@H](C)[C@@H](O)[C@@H](C)C/C(C)=C/C=C/[C@H](OC)[C@@H]([C@@H](C)[C@@H](O)[C@H](C)[C@@]2(O)C[C@@H](O)[C@H](C)[C@@H](C(C)C)O2)OC1=O", "note": "[bafilomycin]", "values": [
      {"measurement": "intracellular calcium concentration", "setting": "[4]", "result": "significantly reduced pH and calcium levels"},
      {"measurement": "media pH", "setting": "[5]", "result": "significantly reduced pH"},
      {"measurement": "bafilomycin-mediated ERK inhibition with exogenous HCO3−", "setting": "[1]; shY/T SN12C, 3 h, 0.3 μM Baf and/or 25 mM NaHCO3", "result": "rescued by the addition of exogenous HCO3^−"},
      {"measurement": "pERK levels in shY/T cells with increasing concentrations", "setting": "[1]; shY/T SN12C", "result": "inhibited ERK phosphorylation in a dose-dependent manner"},
      {"measurement": "sensitivity of NF2-mutant cells to lysosomal inhibition upon YAP/TAZ depletion", "setting": "[6]", "result": "increased the sensitivity of NF2-mutant cells to lysosomal inhibition, especially under nutrient-deprived conditions"}
    ]},
    {"compound": "CN=c1nc(-c2ccccc2)n(-c2ccccc2)s1", "note": "[SCH 202676]", "values": [
      {"measurement": "pERK levels in shY/T cells", "setting": "[1]; [7]", "result": "none of the GPCR inhibitors reduced ERK phosphorylation"}
    ]},
    {"compound": "CC(Sc1nc2ccccc2[nH]1)C(=O)N/N=C/c1cc(Br)ccc1O", "note": "(centres unmarked) [KH7]", "values": [
      {"measurement": "pAKT levels in Ctrl cells", "setting": "[3]", "result": "not pAKT"},
      {"measurement": "bicarbonate-raised pERK levels in Ctrl cells", "setting": "[1]; Ctrl cells, bicarbonate plus KH7, FIG. 8K", "result": "blocked by KH7"},
      {"measurement": "pERK levels in shY/T cells", "setting": "[1]; [7]", "result": "drastically inhibited pERK levels"}
    ]},
    {"compound": "O=S(=O)(NCCNC/C=C/c1ccc(Br)cc1)c1cccc2cnccc12", "note": "[H-89]", "values": [
      {"measurement": "pAKT levels in Ctrl cells", "setting": "[3]", "result": "without also blocking pAKT"},
      {"measurement": "pERK levels in shY/T cells, combination of PKA inhibitor H-89 and EPAC inhibitor HJC", "setting": "[1]; shY/T SN12C cells treated overnight, FIG. 8E", "result": "synergizes with EPAC inhibitor HJC in reducing pERK levels"},
      {"measurement": "pERK levels in shY/T cells", "setting": "[1]; [7]", "result": "specifically inhibited ERK phosphorylation"}
    ]},
    {"compound": "EGF: epidermal growth factor (NSDSECPLSHDGYCLHDGVCMYIEALDKYACNCVVGYIGERCQYRDLKWWELR; Epidermal growth factor; UniProt P01133 971-1023, looked up)", "values": [
      {"measurement": "AKT phosphorylation in shY/T cells", "setting": "[3]; shY/T SN12C cells after addition of EGF", "result": "partially rescued AKT phosphorylation"},
      {"measurement": "proliferation under nutrient-replete conditions", "setting": "[2]", "result": "allowed shY/T cells to regain the ability to proliferate"},
      {"measurement": "Glc- and Gln-starvation-induced cell death in shY/T cells", "setting": "[2]; −Glc or −Gln", "result": "did not prevent cell death"}
    ]},
    {"compound": "CC(C)NCC(O)c1ccc(NS(C)(=O)=O)cc1", "note": "(centres unmarked) [Sotalol]", "values": [
      {"measurement": "pERK levels in shY/T cells", "setting": "[1]; [7]", "result": "none of the GPCR inhibitors reduced ERK phosphorylation"}
    ]},
    {"compound": "Cl.c1ccc(C2CCCC2NC2=NCCCCCCCCCCC2)cc1", "note": "(centres unmarked) [MDL 12330A]", "values": [
      {"measurement": "ERK phosphorylation, tmAC activator/inhibitor alone or in combination", "setting": "[1]; overnight, FIG. 8K", "result": "no effect on ERK phosphorylation"}
    ]},
    {"compound": "Cl", "note": "[HCl]", "values": [
      {"measurement": "pERK levels in shY/T cells with increasing concentrations", "setting": "[1]; shY/T SN12C", "result": "reduced pERK levels in a dose-dependent manner"}
    ]},
    {"compound": "COc1ccc2cc(-c3cc(-c4cc(C(F)(F)F)ccc4F)nn3[C@@H](C)c3ccc(C(=O)NCCC(=O)O)cc3)ccc2c1", "note": "[GRA-1]", "values": [
      {"measurement": "pERK levels in shY/T cells", "setting": "[1]; [7]", "result": "none of the GPCR inhibitors reduced ERK phosphorylation"}
    ]},
    {"compound": "CNC(=O)c1cc(Oc2ccc(NC(=O)Nc3ccc(Cl)c(C(F)(F)F)c3)cc2)ccn1", "note": "[Sorafenib]", "values": [
      {"measurement": "pAKT levels in Ctrl cells", "setting": "[3]", "result": "did not reduce pAKT levels"},
      {"measurement": "pERK levels in shY/T cells", "setting": "[1]; [7]", "result": "inhibited pERK levels"}
    ]},
    {"compound": "CCN(CC)CCCC(C)Nc1ccnc2cc(Cl)ccc12", "note": "(centres unmarked) [chloroquine]", "values": [
      {"measurement": "sensitivity of NF2-mutant cells to lysosomal inhibition upon YAP/TAZ depletion", "setting": "[6]", "result": "increased the sensitivity of NF2-mutant cells to lysosomal inhibition, especially under nutrient-deprived conditions"}
    ]},
    {"compound": "O=C(O)O", "note": "[Bicarbonate, NaHCO3]", "values": [
      {"measurement": "pERK levels in Ctrl cells", "setting": "[1]; Ctrl cells", "result": "raised pERK levels"}
    ]}
  ]
}
